Tests used:
[1] = target: T1, hTG3 (Homo sapiens, UniProt Q08188); experiment: Fluorescent transamidation assay (DCC-assay), hTG3; format: biochemical
T1 construct: purchased Zedira T013
T1 sequence (Q08188 2-467 limits assumed): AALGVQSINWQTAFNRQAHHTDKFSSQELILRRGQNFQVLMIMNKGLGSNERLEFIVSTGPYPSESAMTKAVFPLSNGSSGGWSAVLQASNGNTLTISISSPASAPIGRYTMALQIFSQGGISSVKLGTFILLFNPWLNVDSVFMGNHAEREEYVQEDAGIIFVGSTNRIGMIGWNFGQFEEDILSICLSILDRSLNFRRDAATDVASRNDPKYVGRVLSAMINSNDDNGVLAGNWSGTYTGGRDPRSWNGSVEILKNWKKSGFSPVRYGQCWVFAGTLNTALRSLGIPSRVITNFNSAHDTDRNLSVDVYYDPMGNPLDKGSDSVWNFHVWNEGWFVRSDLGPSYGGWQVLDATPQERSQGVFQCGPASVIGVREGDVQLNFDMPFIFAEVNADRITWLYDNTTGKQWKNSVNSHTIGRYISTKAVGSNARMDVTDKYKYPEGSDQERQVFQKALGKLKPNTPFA
T1 sequence (Q08188 468-693 partner limits assumed): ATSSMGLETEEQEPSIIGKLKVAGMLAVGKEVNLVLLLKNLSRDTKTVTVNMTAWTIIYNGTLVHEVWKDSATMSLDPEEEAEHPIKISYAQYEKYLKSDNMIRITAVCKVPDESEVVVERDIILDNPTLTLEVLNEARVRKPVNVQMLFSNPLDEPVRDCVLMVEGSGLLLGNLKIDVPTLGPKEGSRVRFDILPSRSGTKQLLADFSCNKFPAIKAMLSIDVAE

[2] = system: healthy female and male volunteers; experiment: Phase 1 clinical trial in healthy individuals; format: in vivo, human
Procedure: The phase 1 clinical trial involved more than 100 healthy individuals exposed to up to 500 mg of ZED1227. […] Accordingly, the new chemical entity was progressed to a phase 2a clinical study. The efficacy and safety of a 6-week treatment with ZED1227 was assessed in a randomized, double-blind, placebo-controlled, dose-finding trial at three dose levels (10, 50, 100 mg). In this trial, adult patients with well-controlled celiac disease were challenged with 3 g daily gluten intake to assess the protective effect of ZED1227 on the mucosa. […] Based on the promising results a phase 2b study was initiated in celiac disease patients suffering from symptoms despite following a “gluten-free diet”—essentially an adjunct treatment. There will be no gluten challenge in this “real-life” study, which aims to further substantiate the protective effect of ZED1227 and impact on quality of life in celiac disease patients. It remains to be seen whether the promising clinical data obtained so far translate into a viable, commercially successful drug for patient benefit.

[3] = target: T2, hTG6 (Homo sapiens, UniProt O95932); experiment: Fluorescent transamidation assay (DCC-assay), hTG6; format: biochemical
T2 construct: purchased Zedira T021
T2 sequence (O95932 1-706): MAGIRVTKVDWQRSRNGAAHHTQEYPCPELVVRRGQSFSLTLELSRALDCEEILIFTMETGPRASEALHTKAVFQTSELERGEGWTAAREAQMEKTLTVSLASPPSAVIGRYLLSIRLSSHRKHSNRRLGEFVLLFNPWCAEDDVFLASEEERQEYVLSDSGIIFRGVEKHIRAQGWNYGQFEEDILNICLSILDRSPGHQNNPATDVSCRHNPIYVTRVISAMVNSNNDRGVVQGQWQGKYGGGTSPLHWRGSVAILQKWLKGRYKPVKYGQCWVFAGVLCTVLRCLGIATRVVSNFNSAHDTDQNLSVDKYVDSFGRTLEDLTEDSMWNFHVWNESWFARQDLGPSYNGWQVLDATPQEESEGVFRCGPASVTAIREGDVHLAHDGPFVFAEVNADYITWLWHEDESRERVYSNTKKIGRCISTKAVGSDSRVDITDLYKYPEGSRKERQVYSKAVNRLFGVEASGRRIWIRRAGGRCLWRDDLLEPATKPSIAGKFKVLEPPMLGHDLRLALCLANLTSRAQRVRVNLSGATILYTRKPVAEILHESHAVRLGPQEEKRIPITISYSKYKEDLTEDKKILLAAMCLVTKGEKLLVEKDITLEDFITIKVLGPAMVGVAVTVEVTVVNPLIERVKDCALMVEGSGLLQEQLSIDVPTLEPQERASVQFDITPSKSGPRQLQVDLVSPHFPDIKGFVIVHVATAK
Procedure: Inhibition data were determined using the fluorescent transamidation assay (dansylcadaverine incorporation into glutamine-donor substrate N,N-dimethyl casein, DCC-assay). Briefly, to 15 μL of ZED1227 solution (dissolved and serial diluted in 2% (v/v) DMSO/assay buffer), 285 μL assay buffer [47.5 mM tris(hydroxymethyl)aminomethane, 9.5 mM CaCl2, 9.5 mM glutathione, 2.4% (v/v) glycerol, 190 mM NaCl, pH 8.0] containing dansylcadaverine (15.9 μM), N,N-dimethyl casein (3.8 μM) and the indicated recombinant transglutaminase enzyme [0.95 μg/mL hTG1 (T035), 0.81 μg/mL hTG2 (T022), 0.83 μg/mL hTG6 (T021), all from Zedira] were added, mixed and the kinetic measurement started immediately. […]
Fluorescence emission was continuously monitored for 30 min at λem = 500 nm (λex = 330 nm) and 37 °C using a CLARIOstar fluorescence plate reader (BMG Labtech, Ortenberg, Germany). […] The respective IC50 (and IC90 for TG2) values were calculated by non-linear regression using the MARS software package (BMG Labtech). […]
To facilitate comparability during lead structure optimization and to roughly estimate concentrations needed at the target site, the apparent IC50 values (calculated by four-parameter non-linear fit by MARS software) for irreversible inhibitors are more instructive and are therefore reported. […]

Compound: CCC(CC)CNC(=O)Cn1cccc(NC(=O)[C@H](CC/C=C/C(=O)OC)NC(=O)c2cncn2C)c1=O [ZED1227, (S,E)-Methyl 7-(1-(2-(2-ethylbutylamino)-2-oxoethyl)-2-oxo-1,2-dihydropyridin-3-ylamino)-6-(1-methyl-1H-imidazole-5-carboxamido)-7-oxohept-2-enoate]
- Selectivity hTG3 versus hTG2 ([1]; ratio of app. IC50 values): >900 fold
- IC50 ([1]; recombinant, activated hTG3a, transamidation assay, read-out: App. IC50 hTG3): > 50 µM
- Safety and tolerability, phase 1 ([2]; more than 100 healthy individuals, up to 500 mg, EudraCT 2014-003044-13 and 2015-005283-42): safe and well-tolerated
- Overall safety and tolerability, phase 1 and phase 2a ([2]; more than 100 healthy volunteers and 123 patients in verum groups): safe and well-tolerated
- Selectivity hTG6 versus hTG2 ([3]; ratio of app. IC50 values): 122 fold
- IC50 ([3]; recombinant, transamidation assay, read-out: App. IC50 hTG6): 6.44 µM
